Reference: the Deep4Chem optical property database

Test: photoluminescence quantum yield (fraction); solvent given as SMILES

## N#CC(C#N)=Cc1ccc(-c2ccc(-c3nc4ccccc4s3)c(O)c2)o1
In CCO
  photoluminescence quantum yield: 0.0089
In ClCCl
  photoluminescence quantum yield: 0.0121
In O
  photoluminescence quantum yield: 0.01

## COc1ccc(C#Cc2c3cc4ccccc4cc3c(C#Cc3ccc(OC)cc3)c3cc4ccccc4cc23)cc1
In ClCCl
  photoluminescence quantum yield: 0.03

## O=C(O)CCCOc1cc2ccc3cccc4ccc(c1)c2c34
In CO
  photoluminescence quantum yield: 0.77

## Cc1ccc(-n2c(-c3cccc4cc[n-]c34)[nH+]c3c4ccccc4c4ccccc4c32)cc1
In Cc1ccccc1
  photoluminescence quantum yield: 0.015

## CN(C)c1ccc(-c2ccc(-c3cc(N4CCCCC4)c(C#N)c4c3-c3ccccc3CC4)s2)cc1
In C1CCOC1
  photoluminescence quantum yield: 0.85

## O=c1cc2cc(O)c3cc(O)cc4ccc(o1)c2c43
In CC1CCCO1
  photoluminescence quantum yield: 0.36

## CCOC(=O)C1=C(N)n2c(=O)c3ccccc3c(=O)n2C1c1ccc(C)cc1 (configuration not stated)
In CS(C)=O
  photoluminescence quantum yield: 0.063

## CC(C)(C)[Si](C)(C)C#CC1=CC2=c3cc(C#C[Si](C)(C)C(C)(C)C)c4nc(C(F)(F)C(F)(F)C(F)(F)F)nc5c(C#C[Si](C)(C)C(C)(C)C)cc(c3c54)C3=CC(C#C[Si](C)(C)C(C)(C)C)=C4N=C(C(F)(F)C(F)(F)C(F)(F)F)N=C1C4C32 (configuration not stated)
In C1CCOC1
  photoluminescence quantum yield: 0.35

## CCN1c2ccc(/C=N/Nc3ccccn3)cc2Sc2cc(-c3cccc4ccccc34)ccc21
In C1CCOC1
  photoluminescence quantum yield: 0.2
In CS(C)=O
  photoluminescence quantum yield: 0.35
In Cc1ccccc1
  photoluminescence quantum yield: 0.1
In ClCCl
  photoluminescence quantum yield: 0.3

## Ic1ccc(C2=C3C=CC4=[N+]3[B-]3(Oc5ccccc54)Oc4ccccc4-c4ccc2n43)cc1 (configuration not stated)
In ClC(Cl)Cl
  photoluminescence quantum yield: 0.41

## Cc1cc(C)c(C2=C3C=CC(c4ccccc4O)=[N+]3[B-]3(c4ccccc4)Oc4ccccc4-c4ccc2n43)c(C)c1 (configuration not stated)
In ClC(Cl)Cl
  photoluminescence quantum yield: 0.65

## C(=C\c1ccc(-c2nnc(-c3ccccc3)o2)cc1)/c1ccc(-c2nnc(-c3ccccc3)o2)cc1
In CN(C)C=O
  photoluminescence quantum yield: 0.8

## N#Cc1nc2cnc(N)nc2n1Cc1ccccc1
In C1COCCO1
  photoluminescence quantum yield: 0.34
In CC#N
  photoluminescence quantum yield: 0.31
In CO
  photoluminescence quantum yield: 0.64
In ClCCl
  photoluminescence quantum yield: 0.2
In O
  photoluminescence quantum yield: 0.88

## COc1ncccc1B(O)O
In C1COCCO1
  photoluminescence quantum yield: 0.423
In CC(C)O
  photoluminescence quantum yield: 0.549
In CCCCCC
  photoluminescence quantum yield: 0.502
In CCCCCCC
  photoluminescence quantum yield: 0.689
In CCCCCCCC
  photoluminescence quantum yield: 0.701
In CCCCCCCCO
  photoluminescence quantum yield: 0.317
In CCO
  photoluminescence quantum yield: 0.783
In CO
  photoluminescence quantum yield: 0.518

## CC1CCC(=CS/C=C/c2ccc(/C=C/SC=C3CCC(C)CC3)cc2)CC1 (configuration not stated)
In ClCCl
  photoluminescence quantum yield: 0.027

## CCCC1(CCC)c2cc(-c3ccc4c(c3)C(CCC)(CCC)c3cc(-c5ccc6c(c5)C(CCC)(CCC)c5cc(C(C)(C)CC)ccc5-6)ccc3-4)ccc2-c2ccc(-c3ccc4c(c3)C(CCC)(CCC)c3cc(C(C)(C)CC)ccc3-4)cc21
In C1CCCCC1
  photoluminescence quantum yield: 0.98

## CC(C)(C(=O)c1ccc(N2c3ccccc3C(C)(C)c3ccccc32)cc1)C(=O)c1ccc(N2c3ccccc3C(C)(C)c3ccccc32)cc1
In c1ccc2c(c1)c1ccccc1n2-c1ccc(-c2ccc(-n3c4ccccc4c4ccccc43)cc2)cc1
  photoluminescence quantum yield: 0.64

## Oc1ccc2ccccc2c1/C=N/CC/N=C/c1c(O)ccc2ccccc12
In CC#N
  photoluminescence quantum yield: 0.12

## C=Cc1cc2cc3c(cc2oc1=O)OCO3
In CC#N
  photoluminescence quantum yield: 0.65

## COc1ccc2c3c(cccc13)C(=O)c1ccccc1-2
In CC#N
  photoluminescence quantum yield: 0.62
In CC(C)=O
  photoluminescence quantum yield: 0.56
In CC(C)O
  photoluminescence quantum yield: 0.54
In CCCCOCCCC
  photoluminescence quantum yield: 0.01
In CCOC(C)=O
  photoluminescence quantum yield: 0.23
In CCOCC
  photoluminescence quantum yield: 0.05
In CO
  photoluminescence quantum yield: 0.45
In Cc1ccccc1
  photoluminescence quantum yield: 0.1
In Clc1ccccc1
  photoluminescence quantum yield: 0.41
In N#Cc1ccccc1
  photoluminescence quantum yield: 0.69
In O=C1CCCCC1
  photoluminescence quantum yield: 0.57

## Cn1c2ccccc2c2c1c1ccccc1n2C
In CCCO
  photoluminescence quantum yield: 0.81

## CCCCCCc1cc(-c2ccc3c(c2)C2CCCC2N3c2ccc3c(c2)C(C)(C)c2ccccc2-3)sc1/C=C1\C(=O)c2ccc(C(=O)O)cc2C1=O (configuration not stated)
In ClC(Cl)Cl
  photoluminescence quantum yield: 0.24

## CCN(CC)c1ccc(-c2nc(Oc3ccc(-c4nc5ccccc5[nH]4)cc3)nc(Oc3ccc(-c4nc5ccccc5[nH]4)cc3)n2)cc1
In CN(C)C=O
  photoluminescence quantum yield: 0.197

## F[B-]1(F)n2cccc2C(c2ccccc2)=C2C=CC(c3cccc(OC4=[N+]5C(=C(c6ccccc6)c6cc(Br)c(Br)n6[B-]5(F)F)C=C4Br)c3)=[N+]21
In ClC(Cl)Cl
  photoluminescence quantum yield: 0.28

## CCN(CC)c1ccc(/C=C/C2=[O+][B-](F)(F)Oc3c2c(=O)oc2cc(N(CC)CC)ccc32)cc1
In C1CCCCC1
  photoluminescence quantum yield: 0.46
In C1COCCO1
  photoluminescence quantum yield: 0.72
In CC#N
  photoluminescence quantum yield: 0.011
In CC(C)=O
  photoluminescence quantum yield: 0.021
In CCO
  photoluminescence quantum yield: 0.044
In CCOC(C)=O
  photoluminescence quantum yield: 0.16
In CO
  photoluminescence quantum yield: 0.016
In CS(C)=O
  photoluminescence quantum yield: 0.035
In Cc1ccccc1
  photoluminescence quantum yield: 0.93
In ClC(Cl)Cl
  photoluminescence quantum yield: 0.75
In ClCCl
  photoluminescence quantum yield: 0.16
In OCC(O)CO
  photoluminescence quantum yield: 0.36
In OCCO
  photoluminescence quantum yield: 0.072

## COCCOCCOCCOCC(COCCOCCOCCOC)Oc1cc(/C=C/c2ccc(/C=C(\C#N)c3ccccn3)cc2)c(OC(COCCOCCOCCOC)COCCOCCOCCOC)cc1/C=C/c1ccc(/C=C(\C#N)c2ccccn2)cc1
In ClCCl
  photoluminescence quantum yield: 0.64

## Oc1ccc(C2=N[N+]3=Cc4c(ccc5ccccc45)O[B-]3(c3ccc([B-]45OC(c6ccc(O)cc6)=N[N+]4=Cc4c(ccc6ccccc46)O5)cc3)O2)cc1 (configuration not stated)
In C1CCOC1
  photoluminescence quantum yield: 0.01

## COc1cc(/C=C/CO)ccc1O
In O
  photoluminescence quantum yield: 0.1

## c1ccc(-c2nc(-c3ccc(-c4ccc(-c5ccc(-c6nc(-c7ccccc7)c(-c7ccccc7)o6)cc5)cc4)cc3)oc2-c2ccccc2)cc1
In C1COCCO1
  photoluminescence quantum yield: 0.73

## COc1cc2c(cc1-c1ccc(F)cc1)Cc1c3c(c4c(c1-2)-c1cc(OC)c(-c2ccc(F)cc2)cc1C4)C(=O)N(CCC(C)C)C3=O
In C1CCOC1
  photoluminescence quantum yield: 0.52

## F[B-]1(F)n2c(cc3oc4ccccc4c32)C(c2ccc(I)cc2)=C2C=c3oc4ccccc4c3=[N+]21
In ClC(Cl)Cl
  photoluminescence quantum yield: 0.34

## COC(=O)c1[nH]c(-c2ccccc2)c2nnc3c4ccccc4oc3c12
In ClCCl
  photoluminescence quantum yield: 0.167

## COc1cc(OC)cc(-c2ccc(C3=CC(c4ccccc4)=C(c4ccccc4)C3)cc2)c1
In ClCCl
  photoluminescence quantum yield: 0.0575

## CCCCCCCCN(CCCCCCCC)c1ccc(/C=C/c2ccc(C#Cc3ccc(-c4ccc(C#Cc5ccc(/C=C/c6ccc(N(CCCCCCCC)CCCCCCCC)cc6)cc5)cc4)cc3)cc2)cc1
In Cc1ccccc1
  photoluminescence quantum yield: 0.5

## CC1=c2c3c4cccc5cccc(c=3c(C)[n+]2[B-](F)(F)n2c(C)c3c(c21)-c1cccc2cccc-3c12)c54
In ClC(Cl)Cl
  photoluminescence quantum yield: 0

## O=P1(c2ccccc2)c2cccc3c4ccccc4c4ccc1n4c23 (configuration not stated)
In ClCCl
  photoluminescence quantum yield: 0.25

## c1ccc(N(c2ccccc2)c2c3ccccc3cc3ccccc23)cc1
In Cc1ccccc1
  photoluminescence quantum yield: 0.92

## CC1=[N+]2C(=C(Oc3ccccc3)c3ccc(C)n3[B-]2(F)F)C=C1c1cc2n(c1)[B-](F)(F)[N+]1=CC=CC1=C2c1c(C)cc(C)cc1C
In C1CCCCC1
  photoluminescence quantum yield: 0.89
In CCOC(C)=O
  photoluminescence quantum yield: 0.16

## CCN(CC)c1ccc2cc(C#N)/c(=N\C(=O)c3ccco3)oc2c1
In CCO
  photoluminescence quantum yield: 0.033
In ClCCl
  photoluminescence quantum yield: 0.9

## CC1=C(/C=C/c2ccccc2)C(C)=[N+]2C1=C(c1ccccc1)c1c(C)c(/C=C/c3ccccc3)c(C)n1[B-]2(F)F
In ClC(Cl)Cl
  photoluminescence quantum yield: 0.01

## CC1=N/C(=C\c2cc(C#N)cc(N(C)C)c2)C(=O)N1C
In C1CCOC1
  photoluminescence quantum yield: 0.14
In CC#N
  photoluminescence quantum yield: 0.05
In CCCCCC
  photoluminescence quantum yield: 0.45

## CCC(CC)COC1=CC2=C3c4cc(OCC(CC)CC)c(-c5cccs5)n4[B-](F)(F)[n+]4nnn(c43)[B-](F)(F)[N+]2=C1c1cccs1
In C1CCOC1
  photoluminescence quantum yield: 0.06
In ClCCl
  photoluminescence quantum yield: 0.06

## Cn1c(=O)c(/N=N/c2cc(S(=O)(=O)O)ccc2C(=O)O)c(O)c2ccccc21
In CS(C)=O
  photoluminescence quantum yield: 0.06

## CC(C)[Si](C#Cc1c2c(=O)c3ccccc3c2c(C#C[Si](C(C)C)(C(C)C)C(C)C)c2c(=O)c3ccccc3c12)(C(C)C)C(C)C
In ClC(Cl)Cl
  photoluminescence quantum yield: 0.1

## CCCN1C(=O)C(=CC=CC=C2Oc3ccccc3N2CCCS(=O)(=O)[O-])C(=O)N(CCC)C1=S
In CC(C)=O
  photoluminescence quantum yield: 0.41
In CCCCO
  photoluminescence quantum yield: 0.37
In CCO
  photoluminescence quantum yield: 0.25
In CO
  photoluminescence quantum yield: 0.17
In ClC(Cl)Cl
  photoluminescence quantum yield: 0.32
In O
  photoluminescence quantum yield: 0.04

## COC(=O)c1nc2cnc(N(C)C)nc2n1Cc1ccccc1
In C1COCCO1
  photoluminescence quantum yield: 0.83
In CC#N
  photoluminescence quantum yield: 0.6
In CO
  photoluminescence quantum yield: 0.17
In ClCCl
  photoluminescence quantum yield: 0.81

## CC1(C)Oc2c(c3nc4ccccc4nc3c3ccccc23)CC1Br (configuration not stated)
In C1CCCCC1
  photoluminescence quantum yield: 0.28
In C1CCOC1
  photoluminescence quantum yield: 0.39
In C1COCCO1
  photoluminescence quantum yield: 0.44
In CC#N
  photoluminescence quantum yield: 0.49
In CC(C)O
  photoluminescence quantum yield: 0.39
In CCCCCC
  photoluminescence quantum yield: 0.25
In CN(C)C=O
  photoluminescence quantum yield: 0.34
In CO
  photoluminescence quantum yield: 0.57
In c1ccccc1
  photoluminescence quantum yield: 0.28

## COc1ccc(C2=C(c3ccc(OC)cc3)C(C)(C)c3ccc4ccccc4c32)cc1
In C1CCCCC1
  photoluminescence quantum yield: 0.11

## CCCc1c(C(=O)c2ccc3c4c(cccc24)-c2cccc4c2C3CC=C4)c2ccc3cccc4c5cccc6ccc1c(c65)c2c34 (configuration not stated)
In ClCCl
  photoluminescence quantum yield: 0.058

## COc1ccc(-c2csc(/C(C#N)=C/c3ccc(Cl)cc3Cl)n2)cc1
In CC#N
  photoluminescence quantum yield: 0.031

## CC(C)(C)c1ccc(C2=C(c3ccc(C(C)(C)C)cc3)[Si](c3ccccc3)(c3ccccc3)c3ccccc32)cc1
In C1CCOC1
  photoluminescence quantum yield: 0.015

## CCC1=C(C)C(=O)n2c1cc1c(c(C)c(C(=O)OC)n1C)c2=O
In C1CCCCC1
  photoluminescence quantum yield: 0.03
In CO
  photoluminescence quantum yield: 0.66
In CS(C)=O
  photoluminescence quantum yield: 0.8
In ClC(Cl)Cl
  photoluminescence quantum yield: 0.71
In c1ccccc1
  photoluminescence quantum yield: 0.18

## CC(C)[Si]1(C(C)C)c2cc(C=O)ccc2-c2ccc(N(C)C)cc21
In C1CCCCC1
  photoluminescence quantum yield: 0.08
In CC#N
  photoluminescence quantum yield: 0.81
In CCO
  photoluminescence quantum yield: 0.4
In CCOCC
  photoluminescence quantum yield: 0.79
In CS(C)=O
  photoluminescence quantum yield: 0.57
In ClCCl
  photoluminescence quantum yield: 0.71
In c1ccccc1
  photoluminescence quantum yield: 0.75
